From publication doi:10.1101/2025.06.03.657755v1 (biorxiv, 2025)

Molecular target: SINV nsP2 (Sindbis virus, UniProt P03317)
Sequence (P03317 541-1347): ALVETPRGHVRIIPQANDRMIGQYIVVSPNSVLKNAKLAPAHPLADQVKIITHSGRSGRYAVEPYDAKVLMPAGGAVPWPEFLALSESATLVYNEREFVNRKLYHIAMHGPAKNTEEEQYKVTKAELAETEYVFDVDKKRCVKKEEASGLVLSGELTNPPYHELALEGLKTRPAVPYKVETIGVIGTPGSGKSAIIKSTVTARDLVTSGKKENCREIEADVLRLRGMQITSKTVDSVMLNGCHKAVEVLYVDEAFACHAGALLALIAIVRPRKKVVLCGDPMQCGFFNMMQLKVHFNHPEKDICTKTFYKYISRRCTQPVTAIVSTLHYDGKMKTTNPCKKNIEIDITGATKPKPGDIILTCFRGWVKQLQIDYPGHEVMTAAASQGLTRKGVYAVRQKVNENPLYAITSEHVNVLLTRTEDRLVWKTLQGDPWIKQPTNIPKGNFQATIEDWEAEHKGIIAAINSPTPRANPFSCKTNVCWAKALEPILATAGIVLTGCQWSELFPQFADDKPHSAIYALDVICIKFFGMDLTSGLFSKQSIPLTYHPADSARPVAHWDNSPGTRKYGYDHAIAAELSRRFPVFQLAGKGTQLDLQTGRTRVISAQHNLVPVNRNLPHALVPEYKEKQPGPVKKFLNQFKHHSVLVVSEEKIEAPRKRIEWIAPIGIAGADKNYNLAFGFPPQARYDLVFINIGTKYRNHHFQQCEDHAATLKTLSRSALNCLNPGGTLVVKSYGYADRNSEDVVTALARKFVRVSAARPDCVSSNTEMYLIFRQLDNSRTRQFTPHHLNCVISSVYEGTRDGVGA

## Nc1ncnc2c1ncn2[C@@H]1O[C@H](COP(=O)(O)OP(=O)(O)OP(=O)(O)O)[C@@H](O)[C@H]1O [ATP]
  Km: these additions increase the ATPase Km
